Structures can show the parent of a compound that is named as a salt.
Key:
[1] = target: T1, human β3 adrenergic receptor (Homo sapiens, UniProt P13945); test: cAMP accumulation (SPA) in CHO cells transfected with human β3 adrenergic receptor; type: cell-based; settings: for EC50: CHO cells expressing human β3-AR, cAMP, 30 min incubation, 10^−9 M to 10^−5 M, read-out: beta-3 EC50; for beta-3 (IA) maximal response relative to isoproterenol: IA = % activity compound / % activity isoproterenol at 10^−5 M, CHO human β3 cells
T1 construct: Full length β3 AR clones (402 amino acids) containing the last 6 amino acids of hβ3— AR are prepared; expressed in transfected cells; host or cells: CHO cells
Procedure: (§1) The ability of compounds of this invention to treat or inhibit disorders related to insulin resistance or hyperglycemia was established with representative compounds of this invention in the following standard pharmacological test procedures, which measured the binding selectivity to the β1, β2, and β3 adrenergic receptors. Binding to the receptors was measured in Chinese Hamster ovary (CHO) cells that were transfected with adrenergic receptors. The following briefly summarizes the procedures used and results obtained.
Cloning of Human β3-AR Genomic DNA: cDNA was constructed by ligating four polymerase chain reaction (PCR) products using the following primers: an ATG-Narl fragment, sense primer 5′-[…]3′ and anti-sense primer 5′[…]3′; a Narl-Accl fragment, 5′[…]3′ as sense and 5′[…]3′ as anti-sense primer; an Accli-Styl fragment, sense primer 5′[…]3′ and anti-sense primer 5′[…]3′ and a Styl-TAG fragment, with sense primer 5′[…]3′ and anti-sense primer 5′[…]3′. The corresponding primer sequences are described in Mantzoros, C. S., et.al., Diabetes 45: 909-914 (1996). The four fragments are ligated into a pUC 18 plasmid (Gibco-BRL) and sequenced. Full length β3 AR clones (402 amino acids) containing the last 6 amino acids of hβ3— AR are prepared with the β3-βARpcDNA3from ATTC.
(§2) Binding Procedure: Clones expressing receptor levels of 70 to 110 fmoles/mg protein were used in the test procedures. CHO cells were grown in 24-well tissue culture plates in Dulbecco's Modified Eagle Media with 10% fetal bovine serum, MEM non-essential amino acids, Penicillin-Streptompycin and Geneticin. On the day of test procedure, growth medium was replaced with preincubation media (Dulbecco's Modified Eagle Media and incubated for 30 minutes at 37° C. Preincubation medium was replaced with 0.2 ml treatment medium containing DMEM media containing 250 μM IBMX (isobutyl-1-methylxantine) plus 1 mM ascorbic acid with test compound dissolved in DMSO. Test compounds were tested over a concentration range of 10^−9 M to 10^−5 M for β3 cells and 10^−8 to 10^−4 M for β1 and β2 transfected cells. Isoproterenol (10^−5 M) was used as an internal standard for comparison of activity. Cells were incubated at 37° C. on a rocker for 30 min with the β3 cells and 15 min for β1 and β2 cells. Incubation was stopped with the addition of 0.2N HCl and neutralized with 2.5N NaOH. The plates, containing the cells and neutralized media, were stored at −20 degrees celsius until ready to test for cAMP using the SPA test kit (Amersham).
(§3) Data Analysis and Results: Data collected from the SPA test procedure were analyzed as per cent of the maximal isoproterenol response at 10^−5 M. Activity curves were plotted using the SAS statistical and graphics software. EC50 values were generated for each compound and the maximal response (IA) developed for each compound is compared to the maximal response of isoproternol at 10^−5 M from the following formula:
(§4) IA=% activity compound/% activity isoproterenol

[2] = target: T2, human β2-adrenergic receptor (Homo sapiens, UniProt P07550); test: cAMP accumulation (SPA) in CHO cells transfected with human β2 adrenergic receptor; type: cell-based; settings: for EC50: CHO cells transfected with human β2-AR, cAMP, 15 min incubation, 10^−8 to 10^−4 M, read-out: beta-2 EC50; for beta-2 (IA) maximal response relative to isoproterenol: IA = % activity compound / % activity isoproterenol at 10^−5 M, CHO human β2 cells
T2 construct: expressed in transfected cells; host or cells: CHO cells
Procedure: as §1
(§5) Transfection of CHO cells with β1 and β2 adrenergic receptors: CHO cells were transfected with human β1- or β2-adrenergic receptors as described in Tate, K. M., Eur. J. Biochem., 196:357-361 (1991).
as §2, §3, §4

[3] = target: T3, human β1-adrenergic receptor (Homo sapiens, UniProt P08588); test: cAMP accumulation (SPA) in CHO cells transfected with human β1 adrenergic receptor; type: cell-based; settings: for beta-1 (IA) maximal response relative to isoproterenol: IA = % activity compound / % activity isoproterenol at 10^−5 M, CHO human β1 cells; for EC50: CHO cells transfected with human β1-AR, cAMP, 15 min incubation, 10^−8 to 10^−4 M, read-out: beta-1 EC50
T3 construct: expressed in transfected cells; host or cells: CHO cells
Procedure: as §1, §5, §2, §3, §4

T2 sequence (P07550 whole entry): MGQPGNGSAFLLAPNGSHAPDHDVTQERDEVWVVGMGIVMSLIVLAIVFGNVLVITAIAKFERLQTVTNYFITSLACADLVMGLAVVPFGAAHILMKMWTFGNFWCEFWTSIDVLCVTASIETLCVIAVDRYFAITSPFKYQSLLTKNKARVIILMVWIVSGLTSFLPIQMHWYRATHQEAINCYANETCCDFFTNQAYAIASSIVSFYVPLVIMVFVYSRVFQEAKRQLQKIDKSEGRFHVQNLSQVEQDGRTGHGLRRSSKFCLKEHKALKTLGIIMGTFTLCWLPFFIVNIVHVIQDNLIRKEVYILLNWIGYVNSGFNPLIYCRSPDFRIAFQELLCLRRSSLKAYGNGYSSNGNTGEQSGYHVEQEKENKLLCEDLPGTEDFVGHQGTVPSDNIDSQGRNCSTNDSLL
T3 sequence (P08588 whole entry): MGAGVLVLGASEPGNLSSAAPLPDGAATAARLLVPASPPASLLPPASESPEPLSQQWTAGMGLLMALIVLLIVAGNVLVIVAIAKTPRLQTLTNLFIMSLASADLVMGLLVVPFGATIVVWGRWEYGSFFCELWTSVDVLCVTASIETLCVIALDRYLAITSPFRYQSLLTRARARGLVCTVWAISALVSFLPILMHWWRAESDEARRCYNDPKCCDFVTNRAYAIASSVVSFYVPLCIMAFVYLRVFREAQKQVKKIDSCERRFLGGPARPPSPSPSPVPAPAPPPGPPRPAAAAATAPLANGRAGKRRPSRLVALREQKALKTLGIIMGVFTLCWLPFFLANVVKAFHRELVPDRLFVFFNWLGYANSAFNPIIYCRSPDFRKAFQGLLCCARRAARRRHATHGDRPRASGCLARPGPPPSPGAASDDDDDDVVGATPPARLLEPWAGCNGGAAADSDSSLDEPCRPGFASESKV
T1 sequence (P13945 whole entry): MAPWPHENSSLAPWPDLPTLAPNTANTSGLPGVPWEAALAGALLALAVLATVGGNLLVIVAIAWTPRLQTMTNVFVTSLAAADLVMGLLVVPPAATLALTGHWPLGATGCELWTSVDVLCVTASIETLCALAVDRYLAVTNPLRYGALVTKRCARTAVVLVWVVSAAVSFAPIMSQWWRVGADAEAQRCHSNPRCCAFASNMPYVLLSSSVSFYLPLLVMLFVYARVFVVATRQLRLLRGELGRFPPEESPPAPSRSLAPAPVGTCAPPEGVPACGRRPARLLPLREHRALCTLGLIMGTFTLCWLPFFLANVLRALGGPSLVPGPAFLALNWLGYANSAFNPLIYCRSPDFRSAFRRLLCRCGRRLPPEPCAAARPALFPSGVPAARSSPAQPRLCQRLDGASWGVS

| SMILES | EC50 [1] | beta-3 (IA) maximal response relative to isoproterenol [1] | melting point | EC50 [2] | beta-2 (IA) maximal response relative to isoproterenol [2] | beta-1 (IA) maximal response relative to isoproterenol [3] | EC50 [3] |
| --- | --- | --- | --- | --- | --- | --- | --- |
| COc1ccc(NS(=O)(=O)c2ccc(N3CCC(NC[C@H](O)COc4ccc(O)cc4)CC3)cc2)cc1OC [Example 11, N-(3,4-Dimethoxy-phenyl)-4-{4-[(2S)-2-hydroxy-3-(4-hydroxy-phenoxy)-propylamino]-piperidin-1-yl}-benzenesulfonamide] | 330 nM | (0.83) | 101 to 106 °C |  |  |  |  |
| CS(=O)(=O)Nc1cc([C@@H](O)CNC2CCN(c3ccc(S(=O)(=O)NCC(=O)O)cc3)CC2)ccc1O (as salt: salt) [Example 53, 2-{[(4-{4-[((2R)-2-hydroxy-2-{4-hydroxy-3-[(methylsulfonyl)amino]phenyl}ethyl)amino]-1-piperidinyl}phenyl)sulfonyl]amino}acetic Acid] |  |  | 170 to 172 °C |  |  |  |  |
| COC(=O)N(CC(=O)O)S(=O)(=O)c1ccc(N2CCC(NC[C@H](O)c3ccc(O)c(NS(C)(=O)=O)c3)CC2)cc1 (as salt: salt) [Example 60, [[(4-{4-[((2R)-2-Hydroxy-2-{4-hydroxy-3-[(methylsulfonyl)amino]phenyl}-ethyl)amino]piperidin-1-yl}phenyl)sulfonyl](methoxycarbonyl)amino]acetic Acid] |  |  | 60 °C |  |  |  |  |
| CS(=O)(=O)Nc1cc([C@@H](O)CNC2CCN(c3ccc(S(=O)(=O)N(CC(=O)O)CC(=O)O)cc3)CC2)ccc1O (as salt: salt) [Example 55, 2-((Carboxymethyl)[(4-{4-[((2R)-2-hydroxy-2-{4-hydroxy-3-[(methylsulfonyl)amino]phenyl)ethyl)amino]-1-piperidinyl}phenyl)sulfonyl]amino}acetic Acid] |  |  | 163 to 166 °C |  |  |  |  |
| COc1ccc(NS(=O)(=O)c2ccc(N3CCC(NC[C@H](O)COc4ccc(OCc5ccccc5)cc4)CC3)cc2)cc1OC [Example 9, 4-{4-[(2S)-3-(4-Benzyloxy-phenoxy)-2-hydroxy-propylamino]-piperidin-1-yl}-N-(3,4-dimethoxy-phenyl)-benzenesulfonamide] |  |  | 113 to 121 °C |  |  |  |  |
| CS(=O)(=O)Nc1cc(C(O)CNC2CCN(c3ccc(S(=O)(=O)N4CCCC4C(=O)O)cc3)CC2)ccc1O (stereo not shown) [Example 18, 1-(4-{4-[2-Hydroxy-2-(4-hydroxy-3-methanesulfonylamino-phenyl)-ethylamino]-piperidin-1-yl}-benzenesulfonyl)-pyrrolidine-2-carboxylic Acid] | 41 nM | (0.99) |  | 1000 nM | (0.55) | (0.29) |  |
| CS(=O)(=O)Nc1cc([C@@H](O)CNC2CCN(c3ccc(S(=O)(=O)N(CC(=O)O)Cc4cc(F)ccc4F)cc3)CC2)ccc1O (as salt: salt) [Example 63, 2-{(2,5-Difluorobenzyl)[(4-{4-[((2R)-2-hydroxy-2-{4-hydroxy-3-[(methylsulfonyl)-amino]phenyl}ethyl)amino]-1-piperidinyl}phenyl)sulfonyl]amino}acetic acid] |  |  | 80 to 82 °C |  |  |  |  |
| CS(=O)(=O)Nc1cc([C@@H](O)CNC2CCN(c3ccc(S(=O)(=O)N4CCCC4)cc3)CC2)ccc1O [Example 41, N-{2-Hydroxy-5-[(1R)-1-hydroxy-2-({1-[4-(1-pyrrolidinylsulfonyl)phenyl]-piperidinyl}-4-amino)ethyl]phenyl}methanesulfonamide] | 2 nM | (1) |  | 2000 nM | (0.24) | (0.58) | 800 nM |
| CS(=O)(=O)Nc1cc([C@@H](O)CNC2CCN(c3ccc(S(=O)(=O)N4CCN(CC(=O)O)CC4)cc3)CC2)ccc1O (as salt: sodium) [Example 65] |  |  | 131 °C (dec.) |  |  |  |  |
| COc1ccc(N(Cc2ccccc2)S(=O)(=O)c2ccc(N3CCC(NCC(O)COc4cccc5[nH]c(=O)[nH]c45)CC3)cc2)cc1OC (stereo not shown) [Example 1, N-Benzyl-N-(3,4-dimethoxy-phenyl)-4-{4-[2-hydroxy-3-(2-oxo-2,3-dihydro-1H-benzoimidazol-4-yloxy)-propylamino]-piperidin-1-yl}-benzenesulfonamide] | 17 nM | (0.92) |  |  | (0) | (0.09) |  |
| CS(=O)(=O)Nc1cc([C@@H](O)CNC2CCN(c3ccc(S(=O)(=O)NCC(=O)O)cc3)CC2)ccc1O [Example 53, 2-{[(4-{4-[((2R)-2-hydroxy-2-{4-hydroxy-3-[(methylsulfonyl)amino]phenyl}ethyl)amino]-1-piperidinyl}phenyl)sulfonyl]amino}acetic Acid] | 34 nM | (1.2) |  |  | (0.23) | (0.24) |  |
| CS(=O)(=O)Nc1cc([C@@H](O)CNC2CCN(c3ccc(S(=O)(=O)N4CCC[C@@H]4C(=O)O)cc3)CC2)ccc1O [Example 35, 1-(4-{4-[(2R)-2-Hydroxy-2-(4-hydroxy-3-methanesulfonylamino-phenyl)-ethylamino]-piperidin-1-yl}-benzenesulfonyl)-pyrrolidine-(2R)-2-carboxylic Acid] | 11 nM | (1.1) |  |  | (0.04) | (0.66) | 49000 nM |
| CN(CC(=O)O)S(=O)(=O)c1ccc(N2CCC(NC[C@H](O)c3ccc(O)c(NS(C)(=O)=O)c3)CC2)cc1 [Example 33, [(4-{4-[(2R)-2-Hydroxy-2-(4-hydroxy-3-methanesulfonylamino-phenyl)-ethylamino]-piperidin-1-yl}-benzenesulfonyl)-methyl-amino]-acetic Acid] | 18 nM | (1) |  |  | (0.15) | (0.66) | 25000 nM |
| CC(C)NS(=O)(=O)c1ccc(N2CCC(NC[C@H](O)c3ccc(O)c(NS(C)(=O)=O)c3)CC2)cc1 [Example 29, 4-{4-[(2R)-2-Hydroxy-2-(4-hydroxy-3-methanesulfonylamino-phenyl)-ethylamino]-piperidin-1-yl}-N-isopropyl-benzenesulfonamide] | 7 nM | (1.3) |  | 2900 nM | (0.48) | (0.57) | 2000 nM |
| CS(=O)(=O)Nc1cc([C@@H](O)CNC2CCN(c3ccc(S(=O)(=O)N(CC(=O)O)Cc4cc(F)ccc4F)cc3)CC2)ccc1O [Example 63, 2-{(2,5-Difluorobenzyl)[(4-{4-[((2R)-2-hydroxy-2-{4-hydroxy-3-[(methylsulfonyl)-amino]phenyl}ethyl)amino]-1-piperidinyl}phenyl)sulfonyl]amino}acetic acid] | 5 nM | (0.91) |  |  | (0.15) | (0.88) | 10000 nM |

From patent US6444685B1, “N-(4-sulfonylaryl)Cyclylamine 2-hydroxyethylamines as beta-3 adrenergic receptor agonists” (Wyeth, priority 2000, dated 2002)
